The source of these data is patent US8889708B2 (Boehringer Ingelheim International GmbH, priority 2013, dated 2014).

A short description of series [1]: Metabolic stability with human liver microsomes. In kind it is in vitro ADME. The settings on record: pH 7.6; pooled human liver microsomes, 37° C., 1 μM test compound, 1 mg/ml protein, NADPH; read-out: In vitro stability in human liver microsome incubations t½. On the procedure:
Determination of Metabolic Stability with Human Liver Microsomes
The metabolic degradation of the test compound is assayed at 37° C. with pooled human liver microsomes. The final incubation volume of 100 μl per time point contains TRIS buffer pH 7.6 (0.1 M), magnesium chloride (5 mM), microsomal protein (1 mg/ml) and the test compound at a final concentration of 1 μM. Following a short preincubation period at 37° C., the reactions are initiated by addition of beta-nicotinamide adenine dinucleotide phosphate, reduced form (NADPH, 1 mM) and terminated by transferring an aliquot into acetonitrile after different time points. Additionally, the NADPH-independent degradation is monitored in incubations without NADPH, terminated at the last time point. The [%] remaining test compound after NADPH independent incubation is reflected by the parameter c(control) (metabolic stability). The quenched incubations are pelleted by centrifugation (10,000 g, 5 min). An aliquot of the supernatant is assayed by LC-MS/MS for the amount of parent compound.
The half-life (t½ INVITRO) is determined by the slope of the semilogarithmic plot of the concentration-time profile. The intrinsic clearance (CL_[…]) is calculated by considering the amount of protein in the incubation: CL_[…][μl/min/mg protein]=(ln 2/(half-life[min]*protein content[mg/ml]))*1,000.

Another series has as its target recombinant human DPPI (Homo sapiens (Human), UniProt P53634). Description: Inhibition of Human DPPI (Cathepsin C). In kind it is biochemical. The settings on record: substrate Gly-Arg-AMC, 30 min room temperature. The text has this: Inhibition of Human DPPI (Cathepsin C)
Materials: Microtiterplates (Optiplate-384 F) were purchased from PerkinElmer (Prod. No. 6007270). The substrate Gly-Arg-AMC was from Biotrend (Prod.-No. 808756 Custom peptide). Bovine serum albumin (BSA; Prod. No. A3059) and Dithiothreitol (DTT; Prod. No D0632) were from Sigma. TagZyme buffer was from Riedel-de-Haen (Prod.-No. 04269), NaCl was from Merck (Prod.-No. 1.06404.1000) and morpholinoethane sulfonic acid (MES), was from Serva (Prod.-No. 29834). The DPP1 inhibitor Gly-Phe-DMK was purchased from MP Biomedicals (Prod.-No. 03DK00625). The recombinant human DPPI was purchased from Prozymex. All other materials were of highest grade commercially available.
The following buffers were used: MES buffer: 25 mM MES, 50 mM NaCl, 5 mM DTT, adjusted to pH 6.0, containing 0.1% BSA; TAGZyme Buffer: 20 mM NaH2PO4, 150 mM NaCl adjusted to pH 6.0 with HCl
The recombinant human DPPI was diluted in TAGZyme buffer to 1 U/ml (38.1 μg/ml, respectively), and then activated by mixing in a 1:2 ratio with a Cysteamine aqueous solution (2 mM) and incubating for 5 min at room temperature.
Five uL test compound (final concentration 0.1 nM to 100 μM) in aqua bidest (containing 4% DMSO, final DMSO concentration 1%) were mixed with 10 μL of DPPI in MES buffer (final concentration 0.0125 ng/μL) and incubated for 10 min. Then, 5 μL of substrate in MES buffer (final concentration 50 μM) were added. The microtiter plates were then incubated at room temperature for 30 min. Then, the reaction was stopped by adding 10 μL of Gly-Phe-DMK in MES-buffer (final concentration 1 μM). The fluorescence in the wells was determined using a Molecular Devices SpectraMax M5 Fluorescence Reader (Ex 360 nm, Em 460 nm) or an Envision Fluorescence Reader (Ex 355 nm, Em 460 nm).
Each assay microtiter plate contained wells with vehicle controls (1% DMSO in bidest+0.075% BSA) as reference for non-inhibited enzyme activity (100% Ctl; high values) and wells with inhibitor (Gly-Phe-DMK, in bidest+1% DMSO+0.075% BSA, final concentration 1 μM) as controls for background fluorescence (0% Ctl; low values).
The analysis of the data was performed by calculating the percentage of fluorescence in the presence of test compound in comparison to the fluorescence of the vehicle control after subtracting the background fluorescence using the following formula: (RFU(sample)−RFU(background))*100/(RFU(control)−RFU(background))
Data from these calculations were used to generate IC50 values for inhibition of DPPI, respectively.

Series [2] deals with Neutrophil elastase activity in U937 cells. As to the kind of experiment: Neutrophil elastase activity in U937 cytosolic lysate after incubation with test compound. In kind it is cell-based. The following applies: Homo sapiens, U-937, U937 cells incubated 48 hours with compound, read-out: Reduction of NE-activity in U937 cells IC50. On the procedure: Determination of Neutrophil Elastase Activity in U937 Cytosolic Lysate Preparation after Incubation with Test Compound
Optiplate 384F were purchased from PerkinElmer (Prod. No. #6007270). 24well Nunclon cell culture plates (No. 142475) and 96well plates (No. 267245) were from Nunc. Dimethylsulfoxid (DMSO) was from Sigma (Prod. No. D8418). Nonidet-P40 (NP40) was from USBiological (Prod. No. N3500)
Substrate, specific for Neutrophil elastase, was from Bachem (MeOSuc-Ala-Ala-Pro-Val-AMC; Prod. No. I-1270).
Human neutrophil elastase was from Calbiochem (Prod. No. 324681)
Tris-buffer (100 mM Tris; 1M NaCL; pH 7.5)
Tris-buffer+HSA 0.1%; Human Serum Albumin from Calbiochem (Cat#. 126658)
Serine-protease buffer (20 mM Tris; 100 mM NaCL; pH 7.5)+0.1% HSA
Serine protease lysis buffer: 20 mM Tris-HCL; 100 mM NaCl pH 7.5; +0.2% Nonidet-P40;
PBS: phosphate buffered saline, without Ca and Mg, from Gibco
U937 from ECACC (Cat. No. 85011440) cultured in suspension at 37° C. and 5% CO2.
Cell density: 0.2-1 Mio. Cells/ml.
Medium: RPMI1640 GlutaMAX (No. 61870) with 10% FCS from Gibco
Cell Seeding and Treatment:
Compounds in 100% DMSO were diluted in Medium (—FCS) with 10% DMSO and further diluted according to the experiment planned.
20 μl of the compound solution was transferred in the respective wells of the 24 well plate and diluted with 2 ml cell suspension/well containing […] (final concentration of DMSO=0.1%). Compound dilution factor=100
Compounds (up to 7 concentrations) were tested in triplicates with 3 wells for the DMSO 0.1% control, incubatet for 48 hours without medium change at 37° C., 5% CO2 and 95% relative humidity.
Cell Harvesting and Cell Lysate:
Transfer the cell suspension in 2.2 ml Eppendorf cups. Separate cells from medium by centrifugation (400×g; 5 min; RT); discard the supernatant. Resuspend in 1 ml PBS; centrifugation (400×g; 5 min; RT); wash cells twice with PBS. Add 100 μl Serin lysis buffer (ice cold) to the cell pellet; resuspend the pellet and store on ice for 15 minutes. Remove debris by centrifugation at 15000×g for 10 min at 4° C. Transfer 80-100 μl lysate supernatant in 96well plate and store immediately at −80° C.
Neutrophil Elastase Activity Assay:
Frozen lysates were thawn at 37° C. for 10 minutes and stored on ice. Protein content was determined with Bradford protein assay. Lysates were diluted to 0.2-0.5 mg/ml protein in serine protease buffer+HSA.
Standard: NE ([…] stocksolution in Tris-buffer; stored at −80° C.) was diluted in Tris-buffer+HSA to 750 ng/ml, and further serially diluted 1:2 for the standard curve.
Buffer, blank, standard and lysate samples were transferred into 384 well plate
Blank: 5 μl Tris-buffer+10 μl Tris-buffer+HSA+5 μl Substrate
Standard: 5 μl Tris-buffer+10 μl NE (diff.conc.)+5 μl Substrate
Lysate: 5 μl Tris-buffer+10 μl Lysat+5 μl Substrate
The increase in fluorescence (Ex360 nm/Em 460 nm) is determined over 30 minutes with a Molecular Device Spectramax M5 Fluorescence Reader. Kinetic Reduction (Vmax units/sec); 4 vmax points. The amount of neutrophil elastase (ng/ml) is calculated using the standard curve and the Spectramax software. The result is interpolated to ng/mg lysate protein using excel formula functions. Percent inhibition in the compound-treated lysate samples is calculated relative to the DMSO-treated control-sample (100−(compound-sample*100)/control-sample)
IC50 is calculated using Graphpad Prism; nonlinear fitting (log(inhibitor) vs. response—Variable slope).

Sequence of recombinant human DPPI (P53634 231-394): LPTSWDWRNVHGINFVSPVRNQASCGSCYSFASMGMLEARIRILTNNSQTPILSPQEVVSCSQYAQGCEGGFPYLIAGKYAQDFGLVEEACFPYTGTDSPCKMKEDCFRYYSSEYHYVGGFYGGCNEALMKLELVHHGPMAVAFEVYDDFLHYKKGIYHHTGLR
Sequence of recombinant human DPPI (P53634 395-463): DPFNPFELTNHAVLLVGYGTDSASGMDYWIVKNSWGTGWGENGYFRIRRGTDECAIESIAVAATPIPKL
Sequence of recombinant human DPPI (P53634 25-134): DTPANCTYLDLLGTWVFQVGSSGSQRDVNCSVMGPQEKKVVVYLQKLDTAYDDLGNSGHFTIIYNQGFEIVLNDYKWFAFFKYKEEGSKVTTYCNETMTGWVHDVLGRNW

Broadly, the IC50 is the concentration that gives 50% inhibition. With `N#C[C@H](Cc1ccc(-c2cccc(C(N)=O)c2)cc1F)NC(=O)C12CCC(CC1)CN2` [Example 24], in series [1], the half-life at 1 μM was over 2.17 h. For the same compound, the concentration for half-maximal inhibition (IC50) on recombinant human DPPI was found to be 0.0112 µM; in series [2] it was 0.114 µM.
The corresponding values for `N#C[C@H](Cc1ccc(-c2cnn(CC3CCOCC3)c2)cc1F)NC(=O)C12CCC(CC1)CN2` [Example 29] are over 2.17 h, 0.0202 µM and 0.058 µM.
Take `CN(C)S(=O)(=O)c1cccc(-c2ccc(C[C@@H](C#N)NC(=O)C34CCC(CC3)CN4)c(F)c2)c1` [Example 30]: the half-life at 1 μM in series [1] was 0.417 h. For the same compound, at recombinant human DPPI, the IC50 worked out at 0.0067 µM.
In the case of `CS(=O)(=O)c1cc(-c2ccc(C[C@@H](C#N)NC(=O)[C@]34CCC[C@@H](CN3)C4)cc2)ccc1C#N` [Example 16], the IC50 on recombinant human DPPI was found to be 1.22 µM.
As to `CS(=O)(=O)c1cc(-c2ccc(C[C@@H](C#N)NC(=O)C34CCC(CC3)CN4)c(F)c2)ccc1C#N` [Example 1], in series [1], the half-life at 1 μM is over 2.17 h. Moreover, the IC50 in series [2] is 0.064 µM.
As for `N#Cc1ccc(-c2ccc(C[C@@H](C#N)NC(=O)C34CCC(CC3)N4)cc2)cc1F` [Example 11], the half-life at 1 μM in series [1] is over 2.17 h. Further, on recombinant human DPPI, the IC50 came to 0.284 µM.
With `CN1Cc2ccc(-c3ccc(C[C@@H](C#N)NC(=O)C45CCC(CC4)CN5)c(F)c3)cc2C1` [Example 19], at recombinant human DPPI, the half-inhibitory concentration (IC50) is 0.0381 µM.
On to `CS(=O)(=O)c1cc(-c2ccc(C[C@@H](C#N)NC(=O)[C@@]34CC[C@H](CN3)C4)cc2)ccc1C#N` [Example 10], for which the IC50 at recombinant human DPPI stood at 0.283 µM.
Same read-out and setting: the figure for `CN1C(=O)Cc2ccc(-c3ccc(C[C@@H](C#N)NC(=O)[C@]45CC[C@@H](CN4)C5)cc3)cc21` [Example 7] is 0.204 µM; for `CN1C(=O)Cc2ccc(-c3ccc(C[C@@H](C#N)NC(=O)[C@@]45CC[C@H](CN4)C5)cc3)cc21` [Example 8] it is 0.221 µM; for `CN1C(=O)Cc2ccc(-c3ccc(C[C@@H](C#N)NC(=O)C45CCOC(CCN4)C5)cc3)cc21` (stereo partly shown) [Example 9] it is 0.228 µM.
The same measure, in the same setting: the figure for `CN1C(=O)C(C)(C)c2ccc(-c3ccc(C[C@@H](C#N)NC(=O)C45CCC(CC4)CN5)c(F)c3)cc21` [Example 25] is 0.0407 µM; for `CS(=O)(=O)c1cc(-c2ccc(C[C@@H](C#N)NC(=O)[C@]34CC[C@@H](CN3)C4)cc2)ccc1C#N` [Example 14] it is 0.649 µM; for `CS(=O)(=O)c1cc(-c2ccc(C[C@@H](C#N)NC(=O)[C@@]34CCO[C@@H](CN3)C4)cc2)ccc1C#N` [Example 6] it is 0.202 µM.
On to `CN1C(=O)Cc2ccc(-c3ccc(C[C@@H](C#N)NC(=O)[C@]45CCC[C@@H](CN4)C5)cc3)cc21` [Example 12], for which, at recombinant human DPPI, the IC50 was 0.428 µM.
For the compound `CS(=O)(=O)c1ccc(-c2ccc(C[C@@H](C#N)NC(=O)C34CCC(CC3)CN4)c(F)c2)cc1C#N` [Example 18], in series [1], the half-life at 1 μM was over 2.17 h. In addition, the IC50 at recombinant human DPPI is 0.015 µM; in series [2], 0.074 µM.
